Drawing on patent US7666868B2, “N-sulphonylpyrroles and their use as histone deacetylase inhibitors” (4SC AG, priority 2005, dated 2010), this text covers EC50 and IC50 for 24 compounds.

The first assay relates to histone H3 acetylation (lysine 9+14) in HeLa cervical carcinoma cells. The experiment in a line: Cellular histone H3 acetylation assay. The format is cell-based. The conditions noted are these: Homo sapiens, 24 h incubation with compound, read-out: EC50 (histone H3 acetylating cellular potency). From the text: To assess the cellular efficacy of an histone deactylase inhibitor in vitro, an assay is set up in black clear-bottom 96-well plates and optimized for use on the Cellomics “ArrayScan II” platform for a quantitative calculation of histone acetylation. The protocol uses a polyclonal rabbit antibody, specifically binding to acetylated lysine 9+14 of human histone H3 on fixed cells with an Alexa Fluor 488 labeled goat ant rabbit-IgG used for counterstaining (modified from Braunger et al. MCR annual conference 2003, Abstract 4556).
5×10^3 HeLa cervical carcinoma cells/well (ATCC CCL-2) in 200 μl Dulbecco's modified Eagle's medium (DMEM) containing 10% fetal calf serum are seeded at day 1 in Packard view plates and incubated for 24 h under standard cell culture conditions. On day 2, 2 μl test compound (100× final concentration) is added and incubation continued for further 24 h. On day 3, the culture medium is discarded and attached cells fixed for 15 min at room temperature by addition of 100 μl fixation buffer (3.7% v:v formaldehyde in phosphate buffered saline/PBS). After discarding the fixation buffer and one wash with PBS, cells are permeabilized at room temperature by addition of 100 μl/well permeabilization buffer (30.8 mM NaCl, 0.54 mM Na2HPO4, 0.31 mM KH2PO4, 5% v:v Triton X-100) for 15 min at room temperature. After discarding the permeabilization buffer and washing twice with 100 μl/well blocking solution (PBS with 0.05% v:v Tween 20 and 5% w:v milk powder) at room temperature, the 1st antibody (anti-K9+14 histone H3 antibody, Calbiochem No. 382158) in blocking solution (50 μl/well) is added. After incubation for 1 h at 37° C., the wells are washed twice at room temperature with 100 μl/well blocking solution before addition of the 2nd antibody (goat-anti-rabbit Alexa Fluor 488; MoBiTec No. A-11008) in blocking solution (50 μl/well). After further incubation for 1 h at 37° C., wells are washed twice with 100 μl/well blocking solution room temperature. Finally, 100 d/well PBS are added and image analysis performed on the Cellomics “ArrayScan II” platform. For calculation of EC50 values, the nuclear fluorescence in cells treated with and without a reference HDAC inhibitor (eg NVP-LBH-589) are taken as a positive and negative control. For EC50 determination, the percentage of positive cells is determined and EC50 calculation done from concentration-effect curves by means of non-linear regression.
In general, EC50 refers to the concentration giving half of the maximal effect. `CN(C)CCNC(=O)c1cccc(-c2ccc(S(=O)(=O)n3ccc(C=CC(=O)NO)c3)cc2)c1` [Compound 25, 4′-[3-(E)-2-Hydroxycarbamoyl-vinyl)-pyrrole-1-sulfonyl]-biphenyl-3-carboxylic acid (2-dimethylamino-ethyl)-amide]: the concentration giving a half-maximal response (EC50) is 27 to 4400 nM.
With `CN1CCN(c2cc(-c3ccc(S(=O)(=O)n4ccc(/C=C/C(=O)NO)c4)s3)ccn2)CC1` [Compound 42, (E)-N-Hydroxy-3-(1-{5-[2-(4-methyl-piperazin-1-yl)-pyridin-4-yl]-thiophene-2-sulfonyl}-1H-pyrrol-3-yl)-acrylamide], the EC50 lay within 27 to 4400 nM.
In the case of `Nc1ccccc1NC(=O)/C=C/c1ccn(S(=O)(=O)c2cccc(-c3cccc(CCN4CCOCC4)c3)c2)c1` [Compound 18, (E)-N-(2-Amino-phenyl)-3-{1-[3′-(2-morpholin-4-yl-ethyl)-biphenyl-3-sulfonyl]-1H-pyrrol-3-yl}-acrylamide], the EC50 was in the range of 27 to 4400 nM.
The same measure, in the same setting: to `O=C(/C=C/c1ccn(S(=O)(=O)c2cccc(-c3ccc(OCCN4CCOCC4)cc3)c2)c1)NO` [Compound 34, (E)-N-Hydroxy-3-{1-[4′-(2-morpholin-4-yl-ethoxy)-biphenyl-3-sulfonyl]-1H-pyrrol-3-yl}-acrylamide] belongs 27 to 4400 nM; to `O=C(/C=C/c1ccn(S(=O)(=O)c2ccc(-c3cccc(CCN4CCOCC4)c3)cc2)c1)NO` [Compound 9, (E)-N-Hydroxy-3-{1-[3′-(2-morpholin-4-yl-ethyl)-biphenyl-4-sulfonyl]-1H-pyrrol-3-yl}-acrylamide], 27 to 4400 nM; to `CN(C)CCNC(=O)c1ccc(-c2cccc(S(=O)(=O)n3ccc(C=CC(=O)NO)c3)c2)cc1` [Compound 30, 3′-3-((E)-2-Hydroxycarbamoyl-vinyl)-pyrrole-1 sulfonyl]-biphenyl-4-carboxylic acid (2-dimethylamino-ethyl)-amide], 27 to 4400 nM.
Consider `CN1CCN(c2cc(-c3cccc(S(=O)(=O)n4ccc(/C=C/C(=O)NO)c4)c3)ccn2)CC1` [Compound 33, (E)-N-Hydroxy-3-(1-{3-[2-(4-methyl-piperazin-1-yl)-pyridin-4-yl]-benzenesulfonyl}-1H-pyrrol-3-yl)-acrylamide], for which the EC50 fell in the range of 27 to 4400 nM.
On to `O=C(/C=C/c1ccn(S(=O)(=O)c2cc(-c3ccccc3)ccc2CCN2CCOCC2)c1)NO` [Compound 16, (E)-N-Hydroxy-3-{1-[4-(2-morpholin-4-yl-ethyl)-biphenyl-3-sulfonyl]-1H-pyrrol-3-yl}-acrylamide], for which the EC50 lay in the range of 27 to 4400 nM.
The same measure, in the same setting: to `CS(=O)(=O)Nc1ccc(-c2ccc(S(=O)(=O)n3ccc(/C=C/C(=O)NO)c3)cc2)cc1` [Compound 23, (E)-N-Hydroxy-3-[1-(4′-methanesulfonylamino-biphenyl-4-sulfonyl)-1H-pyrrol-3-yl]-acrylamide] belongs 27 to 4400 nM.
On the same count and under the same terms, to `O=C(/C=C/c1ccn(S(=O)(=O)c2cccc(-c3ccc(OCCN4CCCC4)cc3)c2)c1)NO` [Compound 43, (E)-N-Hydroxy-3-{1-[4′-(2-pyrrolidin-1-yl-ethoxy)-biphenyl-3-sulfonyl]-1H-pyrrol-3-yl}-acrylamide] belongs 27 to 4400 nM.
On the same count and under the same terms, to `O=C(/C=C/c1ccn(S(=O)(=O)c2cccc(-c3cccc(CN4CCOCC4)c3)c2)c1)NO` [Compound 31, (E)-N-Hydroxy-3-[1-(3′-morpholin-4-ylmethyl-biphenyl-3-sulfonyl)-1H-pyrrol-3-yl]-acrylamide] belongs 27 to 4400 nM; to `CS(=O)(=O)Nc1cccc(-c2ccc(S(=O)(=O)n3ccc(/C=C/C(=O)Nc4ccccc4N)c3)cc2)c1` [Compound 59, (E)-N-(2-Amino-phenyl)-3-[1-(3′-methanesulfonylamino-biphenyl-4-sulfonyl)-1H-pyrrol-3-yl]-acrylamide], 27 to 4400 nM.
In the case of `O=C(/C=C/c1ccn(S(=O)(=O)c2ccc(-c3ccc(CN4CCOCC4)cc3)s2)c1)NO` [Compound 54, (E)-N-Hydroxy-3-{1-[5-(4-morpholin-4-ylmethyl-phenyl)-thiophene-2-sulfonyl]-1H-pyrrol-3-yl}-acrylamide], the EC50 is 27 to 4400 nM.
Same read-out and setting: to `CN(C)Cc1ccccc1-c1ccc(S(=O)(=O)n2ccc(/C=C/C(=O)NO)c2)cc1` [Compound 27, (E)-3-[1-(2′-Dimethylaminomethyl-biphenyl-4-sulfonyl)-1H-pyrrol-3-yl]-N-hydroxy-acrylamide] belongs 27 to 4400 nM; to `CS(=O)(=O)Nc1ccccc1-c1ccc(S(=O)(=O)n2ccc(/C=C/C(=O)NO)c2)cc1` [Compound 21, (E)-N-Hydroxy-3-[1-(2′-methanesulfonylamino-biphenyl-4-sulfonyl)-1H-pyrrol-3-yl]-acrylamide], 27 to 4400 nM.
Still for that read-out and setting: to `O=C(/C=C/c1ccn(S(=O)(=O)c2cccc(-c3ccc(CN4CCOCC4)cc3)c2)c1)NO` [Compound 36, (E)-N-Hydroxy-3-[1-(4′-morpholin-4-ylmethyl-biphenyl-3-sulfonyl)-1H-pyrrol-3-yl]-acrylamide] belongs 27 to 4400 nM; to `COCCNCc1ccc(-c2cccc(S(=O)(=O)n3ccc(C=CC(=O)NO)c3)c2)cc1` [Compound 58, (E)-N-Hydroxy-3-(1-{4′-[(2-methoxy-othylamino)-methyl]-biphenyl-3-sulfonyl}-1H-pyrrol-3-yl)-acrylamide], 27 to 4400 nM.

In another assay the test system is HeLa cervical carcinoma cell line. The assay is described as follows: Cellular cytotoxicity assay (Alamar Blue / Resazurin). Format: cell-based. The conditions noted are these: Homo sapiens; HeLa cells, 48 hours incubation; read-out: IC50 (anti-proliferative/cytotoxic potency). As to the method:
The anti-proliferative activity of the histone deacetylase inhibitory compounds as described herein, is evaluated with the HeLa cervical carcinoma cell line (ATCC CCL2) using the Alamar Blue (Resazurin) cell viability assay (O'Brien et al. Eur J Biochem 267, 5421-5426, 2000). Resazurin is reduced to the fluorescent resorufin by cellular dehydrogenase activity, correlating with viable, proliferating cells. Test compounds are dissolved as 10 mM solutions in dimethylsulfoxide (DMSO) and subsequently diluted in semi-logarithmic steps. HeLa cells are seeded into 96 well flat bottom plates at a density of 3000 cells per well in a volume of 200 μl per well. 24 hours after seeding 1 μl each of the compound dilutions are added into each well of the 96 Well plate. Each compound dilution is tested as quadruplicates. Wells containing untreated control cells are filled with 200 μl DMEM medium containing 0.5% v:v DMSO. The cells are then incubated with the substances for 48 hours at 37° C. in a humidified atmosphere containing 5% carbon dioxide. To determine the viability of the cells, 20 μl of an Resazurin solution (Sigma; 90 mg/l) are added. After 4 hours incubation at 37° C. the fluorescence is measured at an extinction of 544 nm and an emission of 590 nm. For the calculation of the cell viability the emission value from untreated cells is set as 100% viability and the emission rates of treated cells are set in relation to the values of untreated cells. Viabilites are expressed as % values. The corresponding IC50 values of the compounds for cytotoxic activity are determined from the concentration-effect curves by means of non-linear regression.
In general terms: Resazurin is reduced to fluorescent resorufin, in cell work by metabolically active cells.
`O=C(/C=C/c1ccn(S(=O)(=O)c2ccc(-c3ccc4c(c3)OCO4)cc2)c1)NO` [Compound 65, (E)-3-[1-(4-Benzo[1,3]dioxol-5-yl-benzenesulfonyl)-1H-pyrrol-3-yl]-N-hydroxy-acrylamide]: the IC50 was 14 to 6700 nM.
With `CN1CCN(CCCOc2ccc(-c3ccc(S(=O)(=O)n4ccc(/C=C/C(=O)NO)c4)cc3)cc2)CC1` [Compound 79, (E)-N-Hydroxy-3-(1-{4′-[3-(4-methyl-piperazin-1-yl)-propoxy]-biphenyl-4-sulfonyl}-1H-pyrrol-3-yl)-acrylamide], the IC50 lay within 14 to 6700 nM.
On the same count and under the same terms, with `CN1CCN(c2cc(-c3ccc(S(=O)(=O)n4ccc(/C=C/C(=O)NO)c4)cn3)ccn2)CC1` [Compound 103, (E)-N-Hydroxy-3-{1-[2′-(4-methyl-piperazin-1-yl)-[2,4′]bipyridinyl-5-sulfonyl]-1H-pyrrol-3-yl}-acrylamide] the figure was 14 to 6700 nM; with `O=C(/C=C/c1ccn(S(=O)(=O)c2ccc(-c3ccc4c(c3)CCO4)cc2)c1)NO` [Compound 70, (E)-3-{1-[4-(2,3-Dihydro-benzofuran-5-yl)-benzenesulfonyl]-1H-pyrrol-3-yl}-N-hydroxy-acrylamide], 14 to 6700 nM; with `Nc1ccccc1NC(=O)/C=C/c1ccn(S(=O)(=O)c2ccc(-c3ccc(OCCN4CCCC4)cc3)cc2)c1` [Compound 108, (E)-N-(2-Amino-phenyl)-3-{1-[4′-(2-pyrrolidin-1-yl-ethoxy)-biphenyl 4-sulfonyl]-1H-pyrrol-3-yl}-acrylamide], 14 to 6700 nM.
On to `CN(C)Cc1ccc(-c2ccc(S(=O)(=O)n3ccc(/C=C/C(=O)NO)c3)cn2)cc1` [Compound 105, (E)-3-{1-[6-(4-Dimethylaminomethyl-phenyl)-pyridine-3-sulfonyl]-1H-pyrrol-4-yl}-N-hydroxy-acrylamide], for which the IC50 lay in the range of 14 to 6700 nM.
On the same count and under the same terms, with `CN(C)Cc1ccc(-c2cccc(S(=O)(=O)n3ccc(/C=C/C(=O)Nc4ccccc4N)c3)c2)cc1` [Compound 102, (E)-N-(2-Amino-phenyl)-3-[1-(4′-dimethylaminomethyl-biphenyl-3-sulfonyl)-1H-pyrrol-3-yl]-acrylamide] the figure was 14 to 6700 nM.
